Laboratory results reported in publication PMC12598851, “Exploiting Avidity Effects for the Discovery of Low Affinity Protein-Binding Fragments” (Journal of Medicinal Chemistry, 2025).
Non-standard residues stand in square brackets, D forms with d. Residues, ends and D or L forms follow the SMILES beside them.

What was measured:
[1] = target: T1, Rpn2-binding surface of Rpn13 (GST-Rpn13 PRU) (Homo sapiens, UniProt Q16186); assay: Competition assay with Rpn2 peptide for GST-Rpn13 PRU fusion protein; details: protein preincubated with Rpn2 peptide 100 μM
T1 construct: the human Rpn13 PRU (pleckstrin-like receptor for ubiquitin) domain is linked to the C-terminus of GST; His6 (C); made in house; host or cells: E. coli BL21 (DE3) codon plus RP
T1 sequence (Q16186 18-131 limits assumed): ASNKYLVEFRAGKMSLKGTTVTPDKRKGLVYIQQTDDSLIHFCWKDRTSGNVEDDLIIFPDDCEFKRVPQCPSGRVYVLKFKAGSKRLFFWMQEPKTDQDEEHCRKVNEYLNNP
Method: As mentioned above, the Rpn13 PRU domain binds to the proteasome via association with a C-terminal peptide tail from Rpn2. […] The amount of protein retained on the resin was then evaluated using the same protocol described above.
This assay was conducted following the exact same procedure described above using two samples: GST-Rpn13 PRU (100 nM) alone, and GST-Rpn13 PRU (100 nM) that had been pretreated with Rpn2 peptide (100 μM) for 1 h at 4 °C. Each sample was added to separate wells of a microtiter plate.

Rpn13 = details: peptide derived from Rpn2; cited from earlier work

effect of soluble Rpn2 peptide competitor on binding of GST-Rpn13 PRU [1]: strongly suppressed binding
Structure (SMILES): CC[C@H](C)[C@H](NC(=O)[C@H](Cc1ccc(O)cc1)NC(=O)[C@@H](CCC(=O)O)NC(=O)[C@H](Cc1ccccc1)NC(=O)[C@@H]1CCCN1C(=O)[C@H](CCC(=O)O)NC(=O)[C@@H]1CCCN1C(=O)[C@@H]1CCCN1C(=O)[C@H](CCC(=O)O)NC(=O)[C@@H]1CCCN1C(=O)[C@@H](CCC(=O)O)NC(=O)[C@H](CCC(N)=O)NC(=O)[C@@H]1CCCN1)C(=O)N[C@@H](CC(=O)O)C(N)=O [Rpn2 peptide, reference compound] (H-PQ[dE]PEPPEPF[dE]YID-NH2)
affinity for Rpn13 (Rpn13): nanomolar affinity
